{"source": "patent US20190133997A1", "about": "“ARTEMISININ ANALOG, AND USE, METHOD, AND COMPOSITION FOR PROMOTING LIPID CATABOLISM AND IMPROVING SUGAR METABOLISM” (FUDAN UNIVERSITY, priority 2016, published 2019)", "key": {"SVF primary preadipocyte": {"system": "SVF primary preadipocyte", "assay": "Artemether on differentiation of Stromal Vascular Fraction (SVF) primary preadipocytes (morphology, Western blot)", "assay_type": "cell-based, mice", "method": "Inguinal fat of male mice was cut into pieces, treated with collagenase at 37° C. for 15 min, and centrifuged at 250 rpm for 10 min. The pellet was resuspended in F12/DMEM medium. 2.5×10^5 cells were taken and seeded in a 3.5 cm culture dish, which was pretreated with 1 ml polylysine for 30 min. Two days after cell contact inhibition (defined as Day 0 of differentiation), induction was performed according to adipocyte differentiation protocol as follows: two days after induction with F12/DMEM comprising 10% fetal bovine serum, 0.5 mMol/L Mix, 1 μMol/L Dex, 5 μg/ml insulin, and 1 μMol/L rosiglitazone; the culture was continued for 2 days with DMEM/F12 comprising 10% fetal bovine serum, […] insulin and 1 μMol/L rosiglitazone; thereafter, DMEM/F12 medium containing 10% fetal bovine serum was replaced every other day until the cells differentiated to Day 8.\nOn Day 0 of differentiation, SVF was treated with different concentrations of artemether ([…]), then fresh medium was replaced, and the corresponding concentration of artemether was added until the cells differentiated to mature.\nThe method for extracting total SVF protein was the same as 2.4.3, Western blot method and catalog number of antibody was the same as 2.4.4."}, "high fat-fed mice [1]": {"system": "high fat-fed mice", "assay": "Subcutaneous artemether, fatty liver induced by high-fat diet (HE staining)", "assay_type": "in vivo, Male C57BL/6J mice", "details": "subcutaneous injection, eight weeks, control: obvious lipid accumulation", "method": "The mice were breeded in the SPF animal laboratory of the Laboratory Animal Center of Fudan University at a room temperature of 21° C.-23° C. with a 12-hour light/dark cycle. […] When the mice were grown to 8-week old, they were randomly divided into a control group and an administration group, with 8 mice in each group. While the mice were fed with a high-fat diet, artemether was injected subcutaneously. Artemether was diluted in PBS at a concentration of […], and injected into bilateral inguinal region, with 200 μl being injected into each side. Mice in control group were injected with the same volume of PBS. Administration was continued for eight weeks. The mice were sacrificed by cervical dislocation, and liver tissues of mice were removed. The histological analysis including tissue fixation, paraffin embedding, sectioning and HE staining was commissioned by Shanghai Saige Biotech Co., Ltd."}, "high fat-fed mice [2]": {"system": "high fat-fed mice", "assay": "Intraperitoneal artemether, weight gain induced by high-fat diet", "assay_type": "in vivo, Male C57BL/6J mice", "details": "intraperitoneal 20 mg/kg twice a week, eight weeks", "method": "(§1) The mice were breeded in the SPF animal laboratory of the Laboratory Animal Center of Fudan University at a room temperature of 21° C.-23° C. with a 12-hour light/dark cycle. […] When the mice were grown to 8-week old, they were randomly divided into a control group and an administration group, with 8 mice in each group. While the mice were fed with a high-fat diet, artemether was injected intraperitoneally. Artemether for intraperitoneal injection was stored at 4° C. in coconut oil at a storage concentration of 6 mg/ml (20 mMol/L), and protected from light. Mice in administration group were injected with artemether at a dose of 20 mg/kg weight. Administration was twice a week for eight weeks, and the weight of the mice was recorded weekly."}, "[3]": {"system": "obese mice induced by high-fat diet", "assay": "Intraperitoneal artemether, random blood glucose, glucose and insulin tolerance in high-fat diet obese mice", "assay_type": "in vivo, Male C57BL/6J mice", "details": "intraperitoneal 20 mg/kg twice a week, eight weeks", "method": "as §1, with “weeks.” for “weeks, and the weight of the mice was recorded weekly.”\nThe mice were fasted for 12-16 hours and injected intraperitoneally with glucose injection at a dose of […]. At 0 min, 30 min, 60 min, 90 min, and 120 min after injection, blood was collected from the tail vein, and blood glucose was measured with OneTouch ExtraEasy glucometer and OneTouch ExtraEasy blood glucose test strips and the results were recorded.\nInsulin was injected intraperitoneally at a dose of 0.75 U/kg weight. At 0 min, 15 min, 30 min, 45 min and 60 min after injection, blood was collected from the tail vein, and blood glucose was measured.\nThe mice were anesthetized with 10% chloral hydrate and blood was taken from the orbit. The whole blood was centrifuged at 300 rpm for 5 min at 4° C. Serum was taken and the blood glucose levels were measured by automatic biochemical analyzer and calibrator for blood glucose Cfas and kit (Roche)."}, "high fat-fed mice [4]": {"system": "high fat-fed mice", "assay": "Intraperitoneal artemether, serum lipid indicators in high-fat diet mice", "assay_type": "in vivo, Male C57BL/6J mice", "details": "intraperitoneal 20 mg/kg twice a week, eight weeks", "method": "as §1, with “weeks.” for “weeks, and the weight of the mice was recorded weekly.”\nThe mice were anesthetized with 10% chloral hydrate and blood was taken from the orbit. The whole blood was centrifuged at 300 rpm for 5 min at 4° C.\nSerum was taken and the serum indicators were measured by lipid calibrator Cfas Lipid, high-density lipoprotein Cfas, and low density lipoprotein Cfas, as well as detection kits for related indicators."}, "[5]": {"assay": "Intraperitoneal artemether, growth of healthy mice on normal diet", "assay_type": "in vivo, Male C57BL/6J mice", "details": "intraperitoneal 20 mg/kg twice a week, eight weeks, vs control", "method": "The mice were breeded in the SPF animal laboratory of the Laboratory Animal Center of Fudan University at a room temperature of 21° C.-23° C. with a 12-hour light/dark cycle. When the mice were grown to 8-week old, they were randomly divided into a control group and an administration group, with 8 mice in each group. Mice in administration group were injected intraperitoneally with artemether. Artemether for intraperitoneal injection was stored at 4° C. in coconut oil at a storage concentration of 6 mg/ml (20 mMol/L), and protected from light. Mice in administration group were injected with artemether at a dose of 20 mg/kg weight. Mice in control group were injected with 100 μl coconut oil. Administration was twice a week for eight weeks and the weight of the mice was recorded weekly."}, "[6]": {"details": "rodent models, high concentrations; no clear evidence of dose and timing; cited from earlier work"}, "[7]": {"details": "SVF, artemether 5, 10, 15 Mol/L, Western Blot"}}, "data": [{"smiles": "CO[C@H]1O[C@@H]2O[C@@]3(C)CC[C@H]4[C@H](C)CC[C@@H]([C@H]1C)[C@@]24OO3", "note": "[artemether]", "values": [{"measurement": "expression level of PGC1α", "setting": "SVF primary preadipocyte; [7]", "value": "gradually increase with the increase of artemether concentration"}, {"measurement": "expression level of PRDM16", "setting": "SVF primary preadipocyte; [7]", "value": "gradually increase with the increase of artemether concentration"}, {"measurement": "expression level of UCP1", "setting": "SVF primary preadipocyte; [7]", "value": "gradually increase with the increase of artemether concentration"}, {"measurement": "cell morphology of SVF primary preadipocyte", "setting": "SVF primary preadipocyte; artemether 5, 10, 15 Mol/L during differentiation, vs standard differentiated control cells, concentration-dependent tendency", "value": "smaller in size, with characteristics of multi-cavity small lipid droplets"}, {"measurement": "lipid in the liver (fatty liver)", "setting": "high fat-fed mice [1]", "value": "only a small amount of lipid"}, {"measurement": "weight gain of mice", "setting": "high fat-fed mice [2]", "value": "significantly slower than that of mice in control group"}, {"measurement": "weight of mice", "setting": "high fat-fed mice [2]; statistically different after three weeks", "value": "significantly lower than that of mice in control group"}, {"measurement": "glucose tolerance", "setting": "[3]", "value": "significantly better than that of mice in control group"}, {"measurement": "insulin sensitivity", "setting": "[3]", "value": "significantly better than that of mice in control group"}, {"measurement": "random blood glucose", "setting": "[3]", "value": "significantly lower than that of mice in control group"}, {"measurement": "Serum cholesterol", "setting": "high fat-fed mice [4]", "value": "significantly decreased"}, {"measurement": "high-density lipoprotein (HDL) in the serum", "setting": "high fat-fed mice [4]", "value": "not different from the control group"}, {"measurement": "serum low density lipoprotein (LDL)", "setting": "high fat-fed mice [4]", "value": "significantly decreased"}, {"measurement": "triglyceride in the serum", "setting": "high fat-fed mice [4]", "value": "not different from the control group"}, {"measurement": "weight gain of healthy mice", "setting": "[5]", "value": "not significantly different"}, {"measurement": "weight of healthy mice", "setting": "[5]", "value": "no difference"}, {"measurement": "anorexia nervosa", "setting": "[6]", "value": "would cause anorexia nervosa"}]}]}
